We go through 3 molecules from patent publication US11474098B2, “Drug target for preventing pathologic calcium overload in cardiomyocytes and methods of screening for same” (THE TRUSTEES OF COLUMBIA UNIVERSITY IN THE CITY OF NEW YORK, priority 2017, dated 2022).

For assay [1], the system named is CaV1.2 channels.
Method: Membrane currents from isolated mouse ventricular cardiomyocytes (O'Connell et al. 2007) were measured by the whole-cell patch-clamp method using a MultiClamp 700B amplifier and pCLAMP 10 software (Molecular Devices) as described (Yang et al. 2013). The pipette solution contained (in mM): 40 CsCl, 90 Cs gluconate, 10 BAPTA, 1 MgCl2, 4 Mg-ATP, 2 CaCl2, and 10 HEPES, adjusted to pH 7.2 with CsOH. After the isolated cardiomyocytes were adequately buffered with 10 mM BAPTA in the internal solution, the isolated cardiomyocytes were superfused with (in mM): 140 TEA-CI, 1.8 CaCl2, 1 MgCl2, 10 glucose, and 10 HEPES, adjusted to pH 7.4 with CsOH. For experiments in tsA-201 cells, TEA-CI was reduced to 130 mM, and BaCl2 (10 mM) was used instead of CaCl2. Pipette series resistances were usually <1 MΩ after 60% compensation. Leak currents and capacitance transients were subtracted by a P/4 protocol. Voltages were corrected for the liquid junction potential of −10 mV. To measure Ca^2+ peak currents, the cell membrane potential was held at −50 mV and stepped to +10 mV for 350 ms every 10 seconds. To evaluate the current-voltage (I-V) relationship for Ca^2+ currents, the same protocol was repeated with steps between −50 mV to +50 mV in 10 mV increments. All experiments were performed at room temperature, 22±1° C. The parameters of voltage-dependent activation were obtained using a modified Boltzmann distribution: I(V)=Gmax*(V−Erev)/[1+exp(Vmid−V)/Vc)], where I(V) is peak current, Gmax is maximal conductance, Erev is reversal potential, Vmid is the midpoint, and Vc is the slope factor.
We next determined the sensitivity of CaV1.2 channels containing either transgenic pWT α1C or AID-mutant α1C to PKA modulation.
The test system of assay [2] is CaV1.2 channels. The conditions noted are these: Katchman et al. 2017; cited from earlier work.
In assay [3] the test system is CaV1.2 channels. Briefly: Whole-cell Ba2+ currents of adenovirus-infected cultured guinea pig ventricular myocytes. The format is cell-based. The conditions noted are these: control cells expressing GFP or YFP-tagged mutant (YWI/AAA) AID peptide; 1 μM forskolin.
From the text: Replication deficient adenoviral vectors expressing AID-YFP and AIDmut-YFP were generated using the AdEasy Adenoviral Vector System (Agilent Technologies) according to the manufacturer's instructions. Briefly, sequences for AID-YFP and AIDmut-YFP were PCR-amplified and cloned into pShuttle-CMV vector. After linearization with PmeI, shuttle vectors were electroporated into BJ5183 cells containing pAdEasy-1 viral plasmid. Positive recombinants were amplified, linearized with Pac I, and transfected into AD-293 cells using the calcium phosphate precipitation method. Transfected cells were monitored for development of adenoviral plaques, after which the cells were freeze-thawed and the lysate used to infect a 10-cm dish of 90% confluent HEK293 cells. Viral expansion and purification was carried out as previously described (Colecraft et al. 2002).
Adult guinea pig ventricular myocytes were isolated by enzymatic digestion using a Langendorff perfusion apparatuses, and cultured as previously described (Miriyala et al. 2008). […] Heart cells were infected 2-3 hours after plating with 5-20 μl of adenoviral vector stock (≅10^11-10^12 viral particles/ml).
Whole-cell recordings of virally-infected cultured guinea pig ventricular myocytes were conducted at room temperature as previously described (Miriyala et al. 2008; Xu et al. 2010). […]
Assay [4] has as its system left ventricular contraction in isolated Langendorff-perfused hearts. Briefly: Ex vivo cardiac contractility, Langendorff-perfused hearts with left ventricular balloon. Also on record: species or system mouse. The conditions noted are these: for increase in contractility in response to isoproterenol: native CaV1.2 first inhibited with nisoldipine; for increase in cardiac contractility: 200 nM isoproterenol with 300 nM nisoldipine, paced at 400 beats per minute. The method, then:
Hearts from these mice are isolated and contractility is assessed by placing a balloon in the left ventricle.
The cannulated hearts were retrogradely perfused on a Langendorff system with a modified Krebs solution (118.5 mM NaCl, 25 mM NaHCO3, 4.7 mM KCl, 1.2 mM MgSO4, 1.2 mM KH2PO4, 11 mM glucose, 1.8 mM Ca^2+). Left ventricular pressure was measured using a balloon catheter connected to an APT-300 pressure transducer, which was connected to a Powerlab digitizer (ADInstruments). […] Peak LV pressure during the 3-minute period was used for the assessment of β-adrenergic agonist stimulation.
We then assessed the role of CaV1.2 modulation in β-adrenergic agonist-induced positive inotropy at the whole organ level by inserting a pressure-transduced balloon into the left ventricle of Langendorff-perfused transgenic mice hearts. This approach enabled measurement of cardiac contractility independent of vascular or systemic effects. Hearts were paced at 400 beats per minute to remove the potentially confounding effect of heart rate variability on contractility (Kushnir et al. 2014). […] By contrast, using the same experimental paradigm in hearts from β-less AID-mutant transgenic mice, the response to isoproterenol was nearly abolished, yielding an average increase in cardiac contractility of only 1.2-fold (FIG. 10H and FIG. 10I).

The next assay relates to isolated cardiomyocytes. Briefly: Fractional shortening (sarcomere length) of field-stimulated isolated cardiomyocytes. The conditions noted are these: for increase in fractional shortening: 200 nM isoproterenol with 300 nM nisoldipine, 1-Hz. It counts as cell-based, mouse. The method, then: Myocytes were field stimulated at 1-Hz. Percent contraction of sarcomere length was measured using the SarcLen module of Ionoptix and calculated as the difference of shortest sarcomere length during a contraction subtracted from the relaxed sarcomere length, divided by the relaxed sarcomere length, all averaged over at least 8 contractions.
We next exploited the findings that transgenic β-less AID-mutant α1C channels are insensitive to PKA modulation to probe the specific role of CaV1.2 modulation in the positive inotropic effect of β-adrenergic agonists in both isolated cardiomyocytes and in the whole heart. […] By contrast, this response was severely diminished in cardiomyocytes expressing transgenic β-less AID-mutant α1C channels in which isoproterenol produced a relatively meager 25% increase in fractional shortening (FIG. 10B and FIG. 10C).

A further assay concerns phospholamban. Put plainly: Immunoblot of phospholamban Ser16 phosphorylation in cardiomyocytes. The conditions noted are these: AID-mutant transgenic mice cardiomyocytes; 200 nM isoproterenol. It counts as cell-based, mouse. On the procedure:
Cells were exposed to 200 nM isoproterenol. Protein extracts were size-fractionated on SDS-PAGE, transferred to nitrocellulose and blotted with anti-pSer16 phospho-specific antibody (upper blot), and anti-PLB antibody (lower blot). Representative of three similar experiments.
Cardiac lysates from 6-12-week-old doxycycline-fed transgenic mice were prepared from either whole hearts or isolated ventricular cardiomyocytes (Yang et al. 2013). Immunoprecipitations were performed in modified RIPA buffer consisting of 50 mM Tris HCl; pH 7.4, 150 mM NaCl, Triton X-100 (0.25%), 10 mM EDTA, 10 mM EGTA, 10 μM Calpain inhibitor I, 10 μM Calpain inhibitor II, and Complete Mini-tablets (1 per 7 ml), using anti-FLAG antibody (Sigma) overnight. Immune complexes were collected using protein A (Amersham) for 2 h, followed by extensive washing. Proteins were size-fractionated, transferred to nitrocellulose membranes and probed with anti-FLAG antibody (Sigma), anti-tubulin antibody (Santa Cruz), custom anti-α1C and anti-β2 antibodies (Yang et al. 2013), and phospholamban antibodies (Badrilla). Detection was performed with a CCD camera (Carestream Imaging), and ImageQuant software was used for quantification. […]

Molecules are shown by their SMILES. Read-outs that look alike come from different tables or passages of the source.

Regarding `Nc1ncnc2c1nc(Br)n2C1OC2COP(O)(=S)OC2C1O` (stereo not drawn) [Rp-8-Br-cAMPS], the “inhibition of nisoldipine-resistant basal current” value with CaV1.2 channels [1] (transgenic AID-mutant mice cardiomyocytes) is recorded as “did not inhibit”. Moreover, the “reversal of isoproterenol-mediated up-regulation of endogenous CaV1.2” value in the assay on CaV1.2 channels [2] is listed as roughly 96%.

With `C=C[C@@]1(C)CC(=O)[C@]2(O)[C@@]3(C)[C@@H](O)CCC(C)(C)[C@@H]3[C@H](O)[C@H](OC(C)=O)[C@@]2(C)O1` [forskolin], in the assay with CaV1.2 channels [3], the “increase in whole-cell current amplitude” value is 4- to 5 fold. Further, the “increase of transgenic pWT α1C Ca2+ currents” value with CaV1.2 channels [1] (transgenic pWT α1C cardiomyocytes, 10 μM forskolin, 300 nM nisoldipine) is recorded as 1.8+0.1 fold.

With `CC(C)NCC(O)c1ccc(O)c(O)c1` (stereo not drawn) [isoproterenol], the “increase in contractility in response to isoproterenol” value is 75-200% in assay [4] (control mice) and 0-25% in assay [4] (mutant mice (CaV1.2 lacking AID)). Further, the “increase in cardiac contractility” value in assay [4] (pWT α1C hearts) was 3.3 fold; in assay [4] (β-less AID-mutant transgenic hearts) it was 1.2 fold. For the same molecule, the “effect on relaxation of cardiomyocytes” value with isolated cardiomyocytes (cardiomyocytes from both pWT and AID-mutant α1C transgenic mice) is on record as “enhanced relaxation”. Moreover, the “increase in fractional shortening” value worked out at 100% in the assay with isolated cardiomyocytes (transgenic pWT α1C cardiomyocytes) and 25% with isolated cardiomyocytes (β-less AID-mutant α1C cardiomyocytes). Besides, the “phosphorylation of phospholamban at Ser16 in response to isoproterenol” value with phospholamban was “appropriately phosphorylated”. Moreover, the “shift of Vmid (V0.5) of steady-state activation” value in the assay on CaV1.2 channels [1] (GFP-WT β2b cardiomyocytes, 200 nM isoproterenol) is given as −7.0 mV; with CaV1.2 channels [1] (GFP-mutant β2b cardiomyocytes, 200 nM isoproterenol) it was −7.5 mV. Also, the “increase of peak CaV1.2 current” value in the assay with CaV1.2 channels [1] (GFP-WT β2 expressing cells, 200 nM isoproterenol) is 1.5±0.1 fold; in the assay with CaV1.2 channels [1] (GFP-mutant β2 expressing cells, 200 nM isoproterenol), 1.6±0.1 fold. Moreover, the “shift of Vmid in the hyperpolarizing direction” value in the assay on CaV1.2 channels [1] (transgenic pWT α1C cardiomyocytes, 200 nM isoproterenol) amounted to 4.4 mV. Also, the “increase of nisoldipine-insensitive current” value with CaV1.2 channels [1] (transgenic pWT α1C cardiomyocytes, 200 nM isoproterenol, 300 nM nisoldipine) worked out at 1.9±0.1 fold.
